These results are taken from US20060084688A1, “Aromatic sulfone hydroxamic acid metalloprotease inhibitor” (priority 1997, published 2006).

The test system of one data set is TNFrII. The data set is described as follows: Tumor necrosis factor assay: TNF Receptor II ELISA on supernatant of PMA-stimulated U-937 cells. As to conditions: Homo sapiens, U-937, read-out: TNFRII Release IC50 in micromolar.
Data set [1] relates to human monocytic line U-937. The data set is classed as cell-based.
Another data set concerns the target T1, recombinant human MMP-2 (Homo sapiens, UniProt P08253).
T1 sequence (P08253 110-660): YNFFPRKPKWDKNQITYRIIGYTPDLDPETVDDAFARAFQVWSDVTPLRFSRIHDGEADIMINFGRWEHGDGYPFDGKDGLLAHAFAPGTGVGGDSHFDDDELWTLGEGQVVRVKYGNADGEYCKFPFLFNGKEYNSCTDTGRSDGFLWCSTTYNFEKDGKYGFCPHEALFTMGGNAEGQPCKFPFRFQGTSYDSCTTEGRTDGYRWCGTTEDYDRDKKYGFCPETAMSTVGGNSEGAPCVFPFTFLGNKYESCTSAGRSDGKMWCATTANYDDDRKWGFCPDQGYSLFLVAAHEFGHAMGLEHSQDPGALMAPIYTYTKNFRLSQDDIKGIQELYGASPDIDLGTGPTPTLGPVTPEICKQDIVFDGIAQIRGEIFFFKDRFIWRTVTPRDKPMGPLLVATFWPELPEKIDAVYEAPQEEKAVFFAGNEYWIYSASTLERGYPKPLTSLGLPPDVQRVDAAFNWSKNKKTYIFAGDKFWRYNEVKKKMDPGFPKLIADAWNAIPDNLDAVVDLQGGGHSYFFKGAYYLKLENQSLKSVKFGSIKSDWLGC
The data set is described as follows: biochemical. Conditions: Inhibition Table B.

In a further data set the target is T2, recombinant human MMP-1 (Homo sapiens, UniProt P03956).
T2 construct: made in house; host or cells: transfected HT-1080 cells
T2 sequence (P03956 100-469): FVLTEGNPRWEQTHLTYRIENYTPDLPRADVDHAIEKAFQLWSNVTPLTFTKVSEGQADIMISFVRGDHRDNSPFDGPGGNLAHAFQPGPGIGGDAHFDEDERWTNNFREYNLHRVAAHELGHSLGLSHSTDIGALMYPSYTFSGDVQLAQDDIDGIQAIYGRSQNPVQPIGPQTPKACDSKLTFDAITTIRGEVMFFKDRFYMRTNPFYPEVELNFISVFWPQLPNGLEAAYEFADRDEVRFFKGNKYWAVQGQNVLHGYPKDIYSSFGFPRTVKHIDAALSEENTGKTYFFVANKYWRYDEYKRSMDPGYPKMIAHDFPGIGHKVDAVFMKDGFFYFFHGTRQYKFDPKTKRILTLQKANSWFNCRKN
In words: biochemical. As to conditions: Inhibition Table B.

For the next data set, the target named is recombinant human MMP-13 (Homo sapiens, UniProt P45452). In words: biochemical. Conditions: Inhibition Table B.

Structures are written as SMILES. Counter-ions that a name gives are not always drawn. Like-named read-outs stand apart in the source and are kept apart here. Where only a bound is given, the exact number is not on record here.

On to `O=C(NO)C1(S(=O)(=O)c2ccc(Oc3ccc(C(F)(F)F)cc3)cc2)CCOCC1` [Example 379], for which the IC50 (usually the point on the concentration scale where inhibition reaches its midpoint) with TNFrII is > 100 µM. For the same compound, the “MTS Toxicity TD50” value in data set [1] stood at 80 µM. Under “Rat Intraveneous, 20 mpk”, this compound showed a t1/2 of 1.74 h.

Take `Cl.O=C(NO)C1(S(=O)(=O)c2ccc(Oc3ccccc3)cc2)CCNCC1` [Example 4, N-hydroxy-4-[(4-phenoxyphenyl)sulfonyl]-4-piperidinecarboxamide]: in the data set on TNFrII, the IC50 is > 100 µM. The “MTS Toxicity TD50” value in data set [1] was >100 µM.

For the compound `Cl.O=C(NO)C1(S(=O)(=O)c2ccc(Sc3ccc(F)cc3)cc2)CCN(C2CC2)CC1` [Example 27, 1-cyclopropyl-4-[[4-[(4-fluorophenyl)thio]phenyl]sulfonyl]-N-hydroxy-4-piperidinecarboxamide], the IC50 with TNFrII is > 100 µM. Moreover, the “MTS Toxicity TD50” value in data set [1] is 100 µM.

Turning to `O=C(NO)C1(S(=O)(=O)c2ccc(Oc3ccc(OC(F)(F)F)cc3)cc2)CCOCC1` [Example 69], the IC50 in the data set on TNFrII is > 100 µM. In addition, in data set [1], the “MTS Toxicity TD50” value was 100 µM. Also, the “Blood Level @ 3 min” value (rat, in vivo, 20 mg/kg) came to 44000 ng/mL. Also, for the setting “rat, in vivo, po, 20 mg/kg”, the BA is reported as 35.9% and the “Blood Level @ 6 hr” value came to 1172 ng/mL.

For the compound `C#CCN1CCC(C(=O)NO)(S(=O)(=O)c2ccc(Sc3ccccc3)cc2)CC1.Cl` [Example 9, N-hydroxy-4-([4-(phenylthio)phenyl]sulfonyl]-1-(2-propynyl)-4-piperidinecarboxamide], the IC50 in the data set with TNFrII was > 100 µM. In addition, in data set [1], the “MTS Toxicity TD50” value was >100 µM.

Take `COCCN1CCC(C(=O)NO)(S(=O)(=O)c2ccc(Sc3ccccc3)cc2)CC1.Cl` [Example 35, N-hydroxy-1-(2-methoxyethyl)-4-[[4-(phenylthio)phenyl]-sulfonyl]-4-piperidinecarboxamide, monohydrochloride]: the IC50 with TNFrII was > 100 µM. Besides, the “MTS Toxicity TD50” value in data set [1] is >100 µM.

Consider `C#CCN1CCC(C(=O)NO)(S(=O)(=O)c2ccc(Oc3ccccc3)cc2)CC1.Cl` [Example 6, N-hydroxy-4-[(4-phenoxyphenyl)sulfonyl]-1-(2-propynyl)-4-piperidinecarboxamide], for which the IC50 in the data set on TNFrII is > 100 µM. The “MTS Toxicity TD50” value in data set [1] is >100 µM.

As to `C#CCN1CCC(C(=O)NO)(S(=O)(=O)c2ccc(Oc3ccc4c(c3)OCO4)cc2)CC1.Cl` [Example 10, 4-[[4-(1,3-benzodioxol-5-yloxy)phenyl]sulfonyl]-N-hydroxy-1-(2-propynyl)-4-piperidinecarboxamide], the concentration for half-maximal inhibition (IC50) with TNFrII was > 100 µM. The “MTS Toxicity TD50” value in data set [1] is >100 µM.

For the setting “Rat Intraveneous, 20 mpk”, `O=C(NO)C1(S(=O)(=O)c2ccc(Oc3ccc(SC(F)(F)F)cc3)cc2)CCOCC1` [Example 382, Tetrahydro-N-hydroxy-4-[[4-[4-[(trifluoromethyl)thio]phenoxy]phenyl]-sulfonyl]-2H-pyran-4-carboxamide] displayed a t1/2 of 1.71 h.

For the compound `Cl.O=C(NO)C1(S(=O)(=O)c2ccc(Sc3ccncc3)cc2)CCOCC1` [Example 104, Tetrahydro-N-hydroxy-4-[[4-(4-pyridinylthio)phenyl]sulfonyl]-2H-pyran-4-carboxamide, monohydrochloride], the t1/2 (Rat Intraveneous, 20 mpk) is 0.66 h.

In the case of `C#CCN1CCC(C(=O)NO)(S(=O)(=O)c2ccc(SC3CCCCC3)cc2)CC1.Cl` [Example 13, 4-[[4-(cyclohexylthio)-phenyl]sulfonyl]-N-hydroxy-1-(2-propynyl)-4-piperidinecarboxamide], in the data set with TNFrII, the IC50 was > 100 µM. For the same compound, in data set [1], the “MTS Toxicity TD50” value is >100 µM.

On to `O=C(NO)C1(S(=O)(=O)c2ccc(Oc3ccc(C(F)(F)F)cc3)cc2)CCN(Cc2ccccn2)CC1` [Example 391, N-hydroxy-1-(2-pyridinylmethyl)-4-[[4-[4-(trifluoromethyl)phenoxy]phenyl]-sulfonyl]-4-piperidinecarboxamide, dihydrochloride], for which the t1/2 (Rat Intraveneous, 20 mpk) was determined as 1.45 h.

As for `O=C(NO)C1(S(=O)(=O)c2ccc(Oc3ccccc3)cc2)CCOCC1` [Example 94, Tetrahydro-N-hydroxy-4-[(4-phenoxyphenyl)sulfonyl]-2H-pyran-4-carboxamide], the t1/2 (Rat Intraveneous, 20 mpk) is 1.71 h.

For the setting “Rat Intraveneous, 20 mpk”, `O=C(NO)C1(S(=O)(=O)c2ccc(Sc3ccc(F)cc3)cc2)CCOCC1` [Example 103, 4-[[4-[(4-fluorophenyl)-thio]phenyl]sulfonyl]tetrahydro-N-hydroxy-2H-pyran-4-carboxamide] showed a t1/2 of 1.10 h.

`CC(=O)N1CCC(C(=O)NO)(S(=O)(=O)c2ccc(Sc3ccccc3)cc2)CC1.Cl` [Example 36, 1-acetyl-N-hydroxy-4-[[4-(phenylthio)phenyl]sulfonyl]-4-piperidinecarboxamide, monohydrochloride]: the t1/2 (Rat Intraveneous, 20 mpk) worked out at 0.65 h.

Consider `CC(=O)N1CCC(C(=O)NO)(S(=O)(=O)c2ccc(Oc3ccccc3)cc2)CC1` [Example 12, 1-acetyl-N-hydroxy-4-[(4-phenoxyphenyl)sulfonyl]-4-piperidinecarboxamide], for which the “Blood Level @ 3 min” value (rat, in vivo, 20 mg/kg) was determined as 73540 ng/mL. Under “rat, in vivo, po, 20 mg/kg”, the BA turned out to be 11.1% and the “Blood Level @ 6 hr” value came to 121 ng/mL.

In turn, `O=C(NO)C1(S(=O)(=O)c2ccc(Oc3ccc(C(F)(F)F)cc3)cc2)CCN(Cc2cccnc2)CC1` [Example 390, N-hydroxy-1-(3-pyridinylmethyl)-4-[[4-(4-trifluoromethyl)phenoxy]phenyl]-sulfonyl]-4-piperidinecarboxamide, dihydrochloride] returned a t1/2 (Rat Intraveneous, 20 mpk) of 1.50 h.

In turn, `Cl.O=C(NO)C1(S(=O)(=O)c2ccc(Oc3ccc4c(c3)OCCO4)cc2)CCN(C2CC2)CC1` [Example 408, 1-cyclopropyl-4-[[4-[(2,3-dihydro-1,4-benzodioxin-6-yl)oxy]phenyl]-sulfonyl]-N-hydroxy-4-piperidine-carboxamide, monohydrochloride] came in with a t1/2 (Rat Intraveneous, 20 mpk) of 3.30 h.

On to `COCCN1CCC(C(=O)NO)(S(=O)(=O)c2ccc(Oc3ccc(OC(F)(F)F)cc3)cc2)CC1.Cl` [Example 416, N-hydroxy-1-(2-methoxyethyl)-4-[[4-[4-(trifluoro-methoxy)phenoxy]phenyl]sulfonyl}-4-piperidinecarboxamide, monohydrochloride], for which, for the setting “Rat Intraveneous, 20 mpk”, the t1/2 is 2.94 h.

Regarding `Cc1cc(Oc2ccc(S(=O)(=O)C3(C(=O)NO)CCNCC3)cc2)ccc1Cl.Cl` [Example 79, 4-[[4-(4-chloro-3-methylphenoxy)phenyl]sulfonyl]-N-hydroxy-4-piperidinecarboxamide, monohydrochloride], at recombinant human MMP-2, the IC50 came out at 0.001 µM. Besides, the IC50 at recombinant human MMP-1 is > 10 µM. Also, on recombinant human MMP-13, the half-maximal inhibitory concentration (IC50) is 0.0017 µM. Further, under “Rat Intraveneous, 20 mpk”, the “AUC (0-∞)” value is 6110 ng·h/mL and the t1/2 came to 1.82 h. In addition, the “Blood Level @ 3 min” value (Rat Intraveneous, 20 mpk, 3 min) stood at 13990 ng/mL. For the setting “Rat Oral, 20 mpk”, the “AUC (0-6 hr)” value is 70 ng·h/mL; the BA is reported as 1.1%; the highest concentration (Cmax) – broadly, the maximum level reached in the sampled fluid or tissue – stood at 20 ng/mL. Moreover, where the note is “Rat Oral, 20 mpk, 6 hr”, the “Blood Level @ 6 hr” value turned out to be 10 ng/mL.

`Cl.O=C(NO)C1(S(=O)(=O)c2ccc(Oc3ccc(Cl)cc3)cc2)CCNCC1` [Example 93, 4-[[4-(4-chlorophenoxy)-phenyl]sulfonyl]-N-hydroxy-4-piperidinecarboxamide, monohydrochloride]: under “Rat Intraveneous, 20 mpk”, the t1/2 came to 1.81 h.

`Cl.O=C(NO)C1(S(=O)(=O)c2ccc(Oc3ccc(-n4ccnc4)cc3)cc2)CCOCC1` [Example 99, tetrahydro-N-hydroxy-4-[[4-[4-(1H-imidazol-1-yl)phenoxy]phenyl]-sulfonyl]-2H-pyran-4-carboxamide, monohydrochloride] displayed a t1/2 (Rat Intraveneous, 20 mpk) of 0.68 h.
